Source: article PMC6792352, “Limited Chemical Structural Diversity Found to Modulate Thyroid Hormone Receptor in the Tox21 Chemical Library” (Environmental Health Perspectives, 2019)
Structures can show the parent of a compound that is named as a salt.

Assay: in vitro
Settings: rat, gh3-tre-luc cells

Row | SMILES | CC50 at 24 h (AC50 (uM) modified / 1000) [µM] | also measured
1 | CC(=O)OC1(c2ccccc2)CCN(CCc2ccccc2)CC1 [1-(2-Phenylethyl)-4-phenyl-4-acetoxypiperidine] | – | CC50 at 24 h (AC50 (uM) modified / 1000, Tox21_110001=Tox21_112833, viability, 1 nM T3 present, 24 h): 84.5 µM
2 | COC(F)(F)C(Cl)Cl [Methoxyflurane] | > 50 | –
3 | C=C(C)C(=O)OCCOCCOCCOC(=O)C(=C)C [Triethylene glycol dimethacrylate] | > 90 | –
4 | C=CC(C)(CCC=C(C)C)OC(=O)/C=C/c1ccccc1 (stereo not drawn) [Linalyl cinnamate] | > 90 | –
5 | Oc1ccc(-c2ccccc2)cc1 [4-Phenylphenol] | – | CC50 at 24 h (AC50 (uM) modified / 1000, Tox21_110001=Tox21_202220, viability, 1 nM T3 present, 24 h): 62.2 µM; CC50 at 24 h (AC50 (uM) modified / 1000, Tox21_110001=Tox21_302734, viability, 1 nM T3 present, 24 h): > 90 µM
6 | CC(=O)[C@H]1CC[C@H]2[C@@H]3CC=C4C[C@@H](O)CC[C@]4(C)[C@H]3CC[C@]12C [Pregnenolone] | > 90 | –
7 | CCc1cccc(CC)c1NC(=O)CN(CC(=O)O)CC(=O)O [Etifenin] | > 20 | –
8 | CC(=O)c1ccc2ccc3ccccc3c2c1 [3-Acetylphenanthrene] | > 90 | –
9 | COc1cc(-c2ccc(=O)[nH]n2)ccc1OC(F)F [Zardaverine] | > 50 | –
10 | Nc1ccc(N=Nc2ccccc2)c(N)c1 [C.I. Basic Orange 2] | 64.1 | –
11 | O=CCCl [Chloroacetaldehyde] | > 90 | –
12 | COP(=S)(OC)Oc1nc(Cl)c(Cl)cc1Cl [Chlorpyrifos-methyl] | – | CC50 at 24 h (AC50 (uM) modified / 1000, Tox21_110001=Tox21_300700, viability, 1 nM T3 present, 24 h): > 90 µM
13 | CC1=C(C/C=C(\C)CCC[C@H](C)CCC[C@H](C)CCCC(C)C)C(=O)c2ccccc2C1=O [Phytonadione] | > 50 | –
14 | CC(C)(CO)[C@@H](O)C(=O)NCCC(=O)O [Calcium pantothenate] | > 50 | –
15 | Cc1ccsc1/C=C/C1=NCCCN1C [Morantel tartrate] | > 20 | –
16 | COc1cc(OC)c2ccc(=O)oc2c1 [5,7-Dimethoxy-2H-chromen-2-one] | > 90 | –
17 | CCN(CC)CCOCCOC(=O)C(CC)(CC)c1ccccc1 [Oxeladin citrate] | 27.1 | –
18 | CCOCCn1c(N2CCCN(C)CC2)nc2ccccc21 [Emedastine difumarate] | > 50 | –
19 | NS(=O)(=O)c1cc2c(cc1Cl)N=C(CSCc1ccccc1)NS2(=O)=O [Benzthiazide] | > 20 | –

Row | SMILES | CC50 at 24 h (AC50 (uM) modified / 1000) [µM] | also measured
20 | CCNC(=O)/C=C/c1cccc(Br)c1 [Cinromide] | > 50 | –
21 | CCCCC(CC)COC(=O)Cl (stereo not drawn) [2-Ethylhexyl chloroformate] | – | CC50 at 24 h (AC50 (uM) modified / 1000, Tox21_110001=Tox21_201491, viability, 1 nM T3 present, 24 h): > 90 µM
22 | C[C@@H](NCCCc1cccc(C(F)(F)F)c1)c1cccc2ccccc12 [Cinacalcet hydrochloride] | 5.95 | –
23 | COc1ccc2c(c1OC)C(=O)O[C@@H]2[C@H]1c2c(cc3c(c2OC)OCO3)CCN1C [Noscapine] | 15 | –
24 | ClCC(Cl)Cl [1,1,2-Trichloroethane] | – | CC50 at 24 h (AC50 (uM) modified / 1000, Tox21_110001=Tox21_202465, viability, 1 nM T3 present, 24 h): > 90 µM
25 | COC(=O)Nc1nc2ccc(C(=O)c3cccs3)cc2[nH]1 [Nocodazole] | 0.337 | –
26 | CCC(=O)c1c(O)cc(O)cc1O [Flopropione] | > 50 | –
27 | CC(C)CCCC(=O)O [5-Methylhexanoic acid] | > 90 | –
28 | COc1cc(Nc2c(C#N)cnc3cc(OCCCN4CCN(C)CC4)c(OC)cc23)c(Cl)cc1Cl [Bosutinib methanoate] | 8.85 | –
29 | C[C@]12CC[C@H](O)C[C@H]1CC[C@@H]1[C@@H]2CC[C@]2(C)[C@@H](c3ccc(=O)oc3)C[C@H]3O[C@]132 [Bufogenin] | – | CC50 at 24 h (AC50 (uM) modified / 1000, Tox21_110001=Tox21_112671, viability, 1 nM T3 present, 24 h): > 50 µM
30 | NCC[C@H](O)C(=O)N[C@@H]1C[C@H](N)[C@@H](O[C@H]2O[C@H](CN)CC[C@H]2N)[C@H](O)[C@H]1O[C@H]1O[C@H](CO)[C@@H](O)[C@H](N)[C@H]1O [Arbekacin sulfate] | > 50 | –
31 | ClC(Cl)C(Cl)(Cl)Cl [Pentachloroethane] | – | CC50 at 24 h (AC50 (uM) modified / 1000, Tox21_110001=Tox21_201141, viability, 1 nM T3 present, 24 h): > 90 µM
32 | CC(=O)CCc1ccc2c(c1)OCO2 [Piperonyl acetone] | – | CC50 at 24 h (AC50 (uM) modified / 1000, Tox21_110001=Tox21_302658, viability, 1 nM T3 present, 24 h): > 90 µM
33 | OCc1ccco1 [Furfuryl alcohol] | > 90 | –
34 | CCCCOCCO [2-Butoxyethanol] | > 90 | –
35 | O=C(O)c1snc(Cl)c1Cl [3,4-Dichloro-5-isothiazolecarboxylic acid] | > 90 | –
36 | Cc1cccc(C)c1NC(=O)CN1CCCC1 [Pyrrocaine] | > 50 | –
37 | CN[C@@H]1CCc2[nH]c3ccc(C(N)=O)cc3c2C1 [Frovatriptan Succinate monohydrate] | > 50 | –
38 | CC(C)Cc1ccc(C(C)C(=O)O)cc1 (stereo not drawn) [Ibuprofen] | > 90 | –
